According to ChEMBL document CHEMBL1142474, “Structure-activity relationship studies of imidazo[1,2-c]pyrimidine derivatives as potent and orally effective Syk family kinases inhibitors” (Bioorg Med Chem, 2008):
≈ marks a conversion by molar mass, not a printed value. Calls of active or inactive are those of the source. The rule behind the calls is not given here.

Experiments:
[1] = target: T1, Tyrosine-protein kinase ZAP-70 (Homo sapiens, UniProt P43403); assay: Inhibition of human ZAP70 expressed in Sf9 cells
T1 sequence (P43403 whole entry): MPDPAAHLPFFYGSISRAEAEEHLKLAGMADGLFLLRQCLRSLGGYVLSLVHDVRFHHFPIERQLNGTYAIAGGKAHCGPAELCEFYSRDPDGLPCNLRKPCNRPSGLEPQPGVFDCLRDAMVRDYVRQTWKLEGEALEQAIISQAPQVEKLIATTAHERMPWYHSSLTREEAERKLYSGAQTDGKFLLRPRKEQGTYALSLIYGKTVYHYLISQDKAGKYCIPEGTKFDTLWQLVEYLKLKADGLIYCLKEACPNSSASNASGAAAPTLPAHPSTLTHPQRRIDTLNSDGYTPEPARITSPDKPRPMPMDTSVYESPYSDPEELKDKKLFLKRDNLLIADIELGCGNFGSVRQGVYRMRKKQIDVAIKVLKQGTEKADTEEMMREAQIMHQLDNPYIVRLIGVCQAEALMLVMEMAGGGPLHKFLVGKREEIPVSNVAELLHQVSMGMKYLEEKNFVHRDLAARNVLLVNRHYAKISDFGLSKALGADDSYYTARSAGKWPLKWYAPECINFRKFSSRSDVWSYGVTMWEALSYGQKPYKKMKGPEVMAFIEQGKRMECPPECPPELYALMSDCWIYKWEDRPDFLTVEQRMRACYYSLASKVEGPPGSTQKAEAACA

[2] = target: Tyrosine-protein kinase SYK (Homo sapiens, UniProt P43405)
Description: Inhibition of human Syk expressed in Sf9 cells

Mus musculus [3] = assay: Plasma concentration in mouse at 3 mg/kg, po; type: ADME, organism-based; set-up: dose 3 mg/kg, route oral; details: in vivo
Mus musculus [4] = assay: Plasma concentration in mouse at 10 mg/kg, po; type: ADME, organism-based; set-up: dose 10 mg/kg, route oral; details: in vivo
[5] = Solubility in water; type: physicochemical
Mus musculus [6] = assay: Plasma concentration in mouse at 100 mg/kg, po; type: ADME, organism-based; set-up: dose 100 mg/kg, route oral; details: in vivo
Mus musculus [7] = assay: Suppression of anti-dinitrophenyl-coupled IgE-induced passive cutaneous anaphylaxis reaction in po dosed ICR mouse administered 1 hr before antigen challenge relative to control; type: functional, organism-based
Mus musculus [8] = assay: Plasma concentration in mouse at 30 mg/kg, po; type: ADME, organism-based; set-up: dose 30 mg/kg, route oral; details: in vivo
Mus musculus [9] = assay: Suppression of concanavalin A-induced IL2 production in po dosed ICR mouse administered 1 hr before concanavalin A challenge relative to control
[10] = Apparent permeability across human Caco-2 cells; type: ADME, cell-based
Blood = assay: Inhibition of IL2 production in PHA-stimulated human whole blood after 24 hrs by ELISA
PBMC = assay: Inhibition of IL2 production in PHA-stimulated human PBMC after 24 hrs by ELISA

SMILES	Activity (Mus musculus [9])	Papp [10]	IC50 (Blood)	IC50 (PBMC)	other results
COc1ccccc1Nc1nc(N[C@H]2CCCC[C@H]2N)n2ccnc2c1C(N)=O (relative stereo)	–	–	–	–	IC50 [1]: > 10000 nM; IC50 [2]: > 10000 nM
COc1cc(Nc2nc(N[C@H]3CCCC[C@H]3N)n3ccnc3c2C(N)=O)cc(OC)c1 (relative stereo)	Dose-dependent effect	3.33 ×10⁻⁶ cm/s	280 nM	58 nM	Cp (Mus musculus [3]): 40 ng/mL; Cp (Mus musculus [4]): 191 ng/mL; solubility [5]: 930 µg/mL (≈ 2190 µM); Cp (Mus musculus [6]): 4031 ng/mL; Activity (Mus musculus [7]): Dose-dependent effect; Cp (Mus musculus [8]): 770 ng/mL
NC(=O)c1c(Nc2cc(F)cc(F)c2)nc(N[C@H]2CCCC[C@H]2N)n2ccnc12 (relative stereo)	–	–	3000 nM	150 nM	–
COc1cc(Nc2nc(N[C@H]3CCCC[C@H]3N)n3ncnc3c2C(N)=O)cc(OC)c1	inactive	0.33 ×10⁻⁶ cm/s	480 nM	76 nM	–
COc1cc(Nc2nc(N[C@H]3CCCC[C@H]3N)n3cc(-c4ccccc4)nc3c2C(N)=O)cc(OC)c1	–	0.43 ×10⁻⁶ cm/s	2000 nM	200 nM	–
COc1cc(Nc2nc(N[C@H]3CCCC[C@H]3N)n3cnnc3c2C(N)=O)cc(OC)c1	inactive	0.01 ×10⁻⁶ cm/s	440 nM	46 nM	Cp (Mus musculus [4]): 28.4 ng/mL; Cp (Mus musculus [6]): 45.2 ng/mL; Cp (Mus musculus [8]): 26.5 ng/mL
Cc1cc(C)cc(Nc2nc(N[C@H]3CCCC[C@H]3N)n3ccnc3c2C(N)=O)c1 (relative stereo)	–	–	1000 nM	200 nM	–
CN[C@@H]1C[C@H]2O[C@@](C)([C@@H]1OC)n1c3ccccc3c3c4c(c5c6ccccc6n2c5c31)C(=O)NC4 [STAUROSPORINE]	–	–	–	16 nM	–
